Data on 6 compounds can be found in US20180110762A1, “Compositions Methods for Treating Chronic Kidney Disease” (Merck Sharp & Dohme Corp, priority 2015, published 2018).

In this assay the target is T1, αvβ3 purified from 293 cells overexpressing αvβ3 (Homo sapiens, UniProt P05106+P06756).
T1 construct: made in house; host or cells: 293 cells overexpressing αvβ3
The experiment in a line: SPAV3 binding assay (scintillation proximity). The source says: • 1. Wheat germ agglutinin Scintillation Proximity Beads (SPA): Amersham • 2. Octylglucopyranoside: Calbiochem • 3. HEPES: Calbiochem • 4. NaCl: Fisher • 5. CaCl2: Fisher • 6. MgCl2: SIGMA • 7. Phenylmethylsulfonylfluoride (PMSF): SIGMA • 8. Optiplate: PACKARD • 9. (S)-3-(4-(2-(6-aminopyridin-2-yl)ethyl)benzamido)-2-((4-(iodo-^125I)phenyl)sulfonamido)propanoic acid as found in WO0046215 (specific activity 500-1000 Ci/mmole) • 10. Test compound • 11. Purified integrin receptor: αvβ3 was purified from 293 cells overexpressing αvβ3 (Duong et al., J. Bone Min. Res., 8:S378, 1993) according to Pytela (Methods in Enzymology, 144:475, 1987) • 12. Binding buffer: 50 mM HEPES, pH 7.8, 100 mM NaCl, 1 mM Ca^2+/Mg^2+, 0.5 mM PMSF • 13. 50 mM octylglucoside in binding buffer: 50-OG buffer
• 1. Pretreatment of SPA beads: • 500 mg of lyophilized SPA beads were first washed four times with 200 ml of 50-OG buffer and once with 100 ml of binding buffer, and then resuspended in 12.5 ml of binding buffer. • 2. Preparation of SPA beads and receptor mixture • In each assay tube, 2.5 μl (40 mg/ml) of pretreated beads were suspended in 97.5 μl of binding buffer and […] of 50-OG buffer. […] (˜30 ng/μ1) of purified receptor was added to the beads in suspension with stirring at room temperature for 30 minutes. The mixture was then centrifuged at 2,500 rpm in a Beckman GPR Benchtop centrifuge for 10 minutes at 4° C. The pellets were then resuspended in 50 μl of binding buffer and 25 μl of 50-OG buffer. • 3. Reaction • The following were sequentially added into Optiplate in corresponding wells: • (i) Receptor/beads mixture (75 μl) • (ii) 25 μl of each of the following: compound to be tested, binding buffer for total binding or A-8 for non-specific binding (final concentration 1 μM) • (iii) (S)-3-(4-(2-(6-aminopyridin-2-yl)ethyl)benzamido)-2-((4-(iodo-^125I)phenyl)sulfonamido)propanoic acid as found in WO0046215 (specific activity 500-1000 Ci/mmole) in binding buffer (25 μl, final concentration 40 pM) • (iv) Binding buffer (125 μl) • (v) Each plate was sealed with plate sealer from PACKARD and incubated overnight with rocking at 4° C. • 4. Plates were counted using PACKARD TOPCOUNT • 5. % inhibition was calculated as follows: • A=total counts • B=nonspecific counts • C=sample counts
% inhibition=[{(A−B)−(C−B)}/(A−B)]/(A−B)×100
Background: In a scintillation proximity assay essentially only radioactivity close to the scintillant gives light.

T1 sequence (P06756 31-889 limits assumed): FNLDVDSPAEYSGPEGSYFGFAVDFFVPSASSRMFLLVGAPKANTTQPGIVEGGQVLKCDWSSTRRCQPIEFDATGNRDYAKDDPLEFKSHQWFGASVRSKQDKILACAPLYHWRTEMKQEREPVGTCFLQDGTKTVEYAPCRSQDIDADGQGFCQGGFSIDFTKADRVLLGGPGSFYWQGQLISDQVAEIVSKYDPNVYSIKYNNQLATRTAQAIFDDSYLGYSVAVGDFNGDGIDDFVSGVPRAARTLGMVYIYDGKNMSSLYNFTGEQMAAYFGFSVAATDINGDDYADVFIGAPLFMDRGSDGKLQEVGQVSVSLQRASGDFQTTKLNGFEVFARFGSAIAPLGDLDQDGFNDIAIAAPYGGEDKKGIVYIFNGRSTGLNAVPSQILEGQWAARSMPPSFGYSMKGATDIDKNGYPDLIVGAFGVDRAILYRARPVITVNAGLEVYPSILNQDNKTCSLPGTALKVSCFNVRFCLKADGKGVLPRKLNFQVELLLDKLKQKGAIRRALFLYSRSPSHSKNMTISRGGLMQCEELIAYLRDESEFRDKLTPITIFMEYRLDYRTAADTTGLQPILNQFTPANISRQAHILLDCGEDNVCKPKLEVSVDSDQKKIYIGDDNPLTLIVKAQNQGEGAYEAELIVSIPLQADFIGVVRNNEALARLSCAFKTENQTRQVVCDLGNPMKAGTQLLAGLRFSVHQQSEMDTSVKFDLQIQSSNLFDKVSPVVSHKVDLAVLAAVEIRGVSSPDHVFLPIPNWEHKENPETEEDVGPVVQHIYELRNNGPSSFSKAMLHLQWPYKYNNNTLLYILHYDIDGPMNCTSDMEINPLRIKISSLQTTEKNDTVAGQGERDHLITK
T1 sequence (P06756 891-1048 partner limits assumed): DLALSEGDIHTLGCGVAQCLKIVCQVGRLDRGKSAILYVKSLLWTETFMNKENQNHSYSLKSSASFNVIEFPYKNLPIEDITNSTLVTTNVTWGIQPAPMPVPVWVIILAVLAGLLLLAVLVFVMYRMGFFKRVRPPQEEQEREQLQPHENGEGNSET
T1 sequence (P05106 27-788): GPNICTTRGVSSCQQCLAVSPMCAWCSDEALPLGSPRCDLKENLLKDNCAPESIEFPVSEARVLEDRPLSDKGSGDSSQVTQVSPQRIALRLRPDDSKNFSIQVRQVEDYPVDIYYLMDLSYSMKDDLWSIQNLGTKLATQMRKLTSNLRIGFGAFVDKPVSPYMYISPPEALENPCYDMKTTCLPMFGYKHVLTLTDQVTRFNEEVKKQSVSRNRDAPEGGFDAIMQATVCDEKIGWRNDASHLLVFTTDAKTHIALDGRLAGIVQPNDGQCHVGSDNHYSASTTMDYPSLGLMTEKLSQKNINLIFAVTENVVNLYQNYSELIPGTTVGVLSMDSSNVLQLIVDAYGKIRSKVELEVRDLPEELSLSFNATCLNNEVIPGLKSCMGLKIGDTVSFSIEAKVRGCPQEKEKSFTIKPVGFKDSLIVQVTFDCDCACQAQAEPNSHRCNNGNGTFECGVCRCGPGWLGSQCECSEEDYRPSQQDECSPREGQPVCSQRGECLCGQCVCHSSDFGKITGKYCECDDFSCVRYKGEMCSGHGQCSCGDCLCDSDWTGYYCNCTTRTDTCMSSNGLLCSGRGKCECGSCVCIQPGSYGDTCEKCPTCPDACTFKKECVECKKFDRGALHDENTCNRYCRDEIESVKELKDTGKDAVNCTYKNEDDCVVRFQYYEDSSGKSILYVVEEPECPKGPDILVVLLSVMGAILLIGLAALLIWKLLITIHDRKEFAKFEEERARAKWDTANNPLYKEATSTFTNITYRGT

As for `Cc1ncc(C(CC(=O)O)CC(=O)CCCCc2ccc3c(n2)NCCC3)cn1` (single isomer, unassigned) [Compound G, 3(S or R)-(2-Methyl-pyrimidin-5-yl)-5-oxo-9-(5,6,7,8-tetrahydro-[1,8]naphthyridin-2-yl)-nonanoic Acid], the IC50 came out at 0.1 nM. Under `COc1ccc([C@H](CC(=O)O)N2CCN(CCCc3ccc4c(n3)NCCC43CC3)C2=O)cn1` [Compound C] stands 0.1 nM. Consider `CCOc1ccc([C@H](CC(=O)O)N2CCN(CCCc3ccc4c(n3)NCCC4)C2=O)cn1` [Compound D], for which the IC50 came out at 0.1 nM. That is a sub-nanomolar value. With `O=C(O)C[C@H](/C=C/CCCCc1ccc2c(n1)NCCC2)c1cncnc1` [Compound E, 3 (R)-(Pyrimidin-5-yl)-9-(5,6,7,8-tetrahydro-[1,8]-naphthyridin-2-yl)-(E)-non-4-enoic Acid] the figure was 0.1 nM. On to `Cc1ncc([C@@H](CCCCCCc2ccc3c(n2)NCCC3)CC(=O)O)cn1` [Compound F], for which the IC50 came out at 0.1 nM. Under `Cc1ncc(C(CC(=O)O)CC(=O)CCCCc2ccc3c(n2)NCCCC3)cn1` [Compound H, 3(R) and 3(S)-(2-Methyl-pyrimidin-5-yl)-5-oxo-9-(5,6,7,8-tetrahydro-5H-pyrido[2,3-b]azepin-2-yl)-nonanoic Acid] stands 0.2 nM.

The term IC50 denotes the concentration at which inhibition is half-maximal. A low value points to higher potency.
